Consider three compounds from patent US20190160093A1, “THERAPEUTIC AGENT FOR DISEASE ACCOMPANIED BY EPILEPTIC WAVES” (TAIYO NIPPON SANSO CORPORATION, priority 2010, published 2019).

Like-named read-outs stand apart in the source and are kept apart here.

The subject of series [1] is epileptic model rat (GRY rat). In words: Electroencephalogram spike index of epileptic model rat (GRY rat). Type of series: in vivo. To be noted: GRY rats. The text has this: In the present Example, a GRY rat (groggy rat, Cacnala) was used as an epileptic model rat. A GRY rat constantly develops an epileptic seizure in normal conditions, and therefore is an extremely excellent system to evaluate a seizure by subjecting the GRY rat to a treatment. The GRY rat has a mutation in an al subunit of a P/Q-type voltage-dependent calcium channel Cav2.1 which encodes Cacnala gene, and is an epileptic model rat which mainly develops ataxia and absence seizure. The GRY rat takes a mode of autosomal recessive inheritance. The 752nd nucleotide “T” of the Cacnala gene has mutated to “A”. As a result, a codon “ATG” to specify methionine which is the 251st amino acid has mutated to a codon “AAG” to specify lysine (M251K). It has been reported that this mutation is located at extracellular p-loop forming a pore of a calcium channel domain 1 and that this mutation (M251K) results in abnormality of a function of the voltage-dependent calcium ion channel Cav2.1 of the rat (Reference Literatures 1 and 2). The GRY rats with this mutation show extension abnormalities of hind limbs, walking abnormalities, and ataxia, and a seizure which is accompanied with spike and wave discharges of 7-8 Hz on the electroencephalograms from 6-8 weeks of age. The present model rats were dispensed from Institute of Laboratory Animals, Graduate School of Medicine, Kyoto University.
Male GRY rats were anesthetized by administering 35 mg/kg of pentobarbital sodium (Nembutal, Sumitomo Dainippon Pharma Co. Ltd.) intraperitoneally, and were fixed to a brain stereotaxic fixing apparatus (SR-5M, NARISHIGE Group). The head was shaved, the skin was incised along the median line, and the skull was exposed. A small hole was opened on the frontal lobe cortex and the occipital lobe cortex on both sides using a dental drill (FALCON, Morita Corporation). A stainless steel screw electrode (FUKUOKA RASHI) having a diameter of 0.9 mm and a length of 1.7 mm and connected a stainless steel wire having a diameter of 0.2 mm (M T Giken) was embedded in the hole (refer to FIG. 1). A screw electrode was embedded in the root of nose as a Z electrode, and a screw electrode was embedded in the cerebellum as an indifferent electrode. Each electrode was connected to a connector socket (Hirose Electric Co. Ltd.), and fixed to the skull with dental cement (Uni Fast II, GC Dental Products).
The rats placed in the multi-gas concentration control apparatus adjusted to a concentration of carbon dioxide of 5% (v/v), 7% (v/v), or 10% (v/v) were subjected to simultaneous video-electroencephalographic recording. Rats placed in the air were used as a control.
Electroencephalograms of the frontal lobe cortex and the occipital lobe cortex of the rats were measured using an electroencephalograph (Neurofax EEG-1200, NIHON KOHDEN CORPORATION). A spike index was used as an index of evaluation of a seizure. The spike index represents a ratio of duration of a spike in measurement time (15 minutes). The spike means a waveform indicating a sharp change in potential in a short time (refer to FIG. 3).
Carbon dioxide was administered to rats by placing the rats in the multi-gas concentration control apparatus adjusted to a concentration of carbon dioxide of 10% (v/v) (9 rats).
By placing the rats in the multi-gas concentration control apparatus, the rats were administered with 10% (v/v) carbon dioxide, and subjected to simultaneous video-electroencephalographic recording every 15 minutes for one hour, and an effect of suppressing an epileptic seizure (spike index) was measured before and after the administration of carbon dioxide.
Next, electroencephalograms were measured.

Series [2] in a line: Blood concentration, blood pH and blood bicarbonate ion after acetazolamide in GRY rats.
For series [3] the following is noted: cited from earlier work.
Series [4] has as its system epileptic model rat (Kyo811 rat). In words: Electroencephalogram and seizure duration of Kyo811 rats with febrile seizures induced by thermal load. Type of series: in vivo. To be noted: febrile seizures by warm bath at 45° C., carbon dioxide 10% (v/v) vs normal air. The text has this: In epilepsy, about 80% of patients of intractable Dravet syndrome (formerly, referred to as Severe Myoclonic Epilepsy in Infancy: SMEI), and about 5-10% of patients of benign generalized epilepsy with febrile seizure plus: GEFS+) have missense mutations in a voltage-dependent sodium channel a subunit type 1 (SCN1A) gene. Therefore, it is considered that the mutations in the SCN1A gene are involved in development of febrile seizures (Reference Literatures 3 and 4). In the present Reference Example, using the Kyo811 rats having a mutation in the Scn1a gene as a genetic factor, suppressive effect of seizure by carbon dioxide was examined. This rat is a febrile seizure model rat which induces febrile seizures by a thermal load, and a GEFS+ model rat.
A Kyo811 rat was prepared as a rat with a mutation in the voltage-dependent sodium channel Scn1a gene by the following technology. […]
After a one-week recovery period, the rats were put into a warm bath at 45° C. for about 3-4 minutes to induce febrile seizures, and electroencephalograms were measured.
Immediately after the seizure was induced, the rats were placed in the multi-gas concentration control apparatus adjusted to the concentration of carbon dioxide of 10% (v/v) or the concentration of the normal air, and the situation of the seizure was observed while electroencephalograms were measured continuously. […]

A short description of series [5]: Blood pH and blood gas of GRY rats placed in gas containing carbon dioxide or oxygen. Type of series: in vivo, rat. Here is the method: In order to control a concentration of carbon dioxide, multi-gas incubator (MCO-5M; Sanyo Electric Co., Ltd.) was used as a multi-gas concentration control apparatus to adjust the concentration of carbon dioxide in the incubator. A concentration of oxygen was also adjusted for comparison. Main components of the normal dry air are 0.032% (v/v) of carbon dioxide, 20.946% (v/v) of oxygen, and 78.084% (v/v) of nitrogen. Therefore, using the above-described multi-gas concentration control apparatus, the concentration of carbon dioxide was set to 5% (v/v), 7% (v/v), or 10% (v/v), or the concentration of oxygen was set to 17% (v/v). When the concentration of carbon dioxide was adjusted, carbon dioxide gas supplied from a carbon dioxide gas bottle connected to the apparatus was diluted with the air outside. Therefore, carbon dioxide=10% (v/v), oxygen=about 18.85% (v/v), and nitrogen=about 70.28% (v/v). When the concentration of oxygen was set to 17% (v/v), similarly, the concentration was adjusted using nitrogen gas supplied from a nitrogen gas bottle connected to the apparatus. Therefore, carbon dioxide=0.026% (v/v), oxygen=about 17% (v/v), and nitrogen=about 82.974% (v/v). It was confirmed using a gas analyzer AGA-2008 (Astec Co. Ltd.) that each concentration in the incubator was correct under the set conditions.
The surgery of embedding an electrode for measurement of electroencephalograms was performed to eight male GRY rats (9 weeks old). After a one-week recovery period, the GRY rats were placed for one hour in the multi-gas concentration control apparatus adjusted to a concentration of carbon dioxide of 5% (v/v), 7% (v/v), or 10% (v/v), or a concentration of oxygen of 17% (v/v).
Blood samples were collected from the tail vein of the rats placed in the multi-gas concentration control apparatus, and the blood pH and the blood concentration of carbon dioxide were measured using an i-STAT analyzer (Fuso Pharmaceutical Industries, Ltd.) as a blood gas analyzer.
Carbon dioxide or oxygen was administered to rats by placing the rats in the multi-gas concentration control apparatus adjusted to a concentration of carbon dioxide of 10% (v/v) or a concentration of oxygen of 17% (v/v) for 15 minutes, 30 minutes, 45 minutes, or 60 minutes (5-6 rats for each). Rats placed in the multi-gas concentration control apparatus adjusted to a concentration of the normal air were used as a control.

A further series relates to 8-11 days-old rats. The conditions noted are these: rats in a chamber containing 5% carbon dioxide; cited from earlier work.
The nature of series [6]: Blood pH of Kyo811 rats after febrile seizures and carbon dioxide. It counts as in vivo, rat. To be noted: Kyo811 rats after febrile seizures, carbon dioxide 10% (v/v). Here is the method:
Immediately after the seizure was induced, the rats were placed in the multi-gas concentration control apparatus adjusted to the concentration of carbon dioxide of 10% (v/v) or the concentration of the normal air, and the situation of the seizure was observed while electroencephalograms were measured continuously.
As a control, the blood pH of the rats (10 rats) before induction of febrile seizures was measured. As a result, it was confirmed that the increase in the concentration of carbon dioxide to 10% (v/v) reduced the blood pH of the rats (FIG. 14).

The mark [7] stands for this setting: 50 mg/kg intraperitoneally, 15, 30, 45 and 60 minutes after the administration, saline control.
Setting [8] is: 10% (v/v) carbon dioxide for 15 to 60 minutes.
[9] abbreviates: carbon dioxide 5% (v/v), 7% (v/v) or 10% (v/v), one hour.
[10] abbreviates: concentration of oxygen 17% (v/v), one hour.

In the case of `CC(=O)Nc1nnc(S(N)(=O)=O)s1` [acetazolamide, Acetazolamide], the “spike duration of a seizure” value in series [1] (acetazolamide 50 mg/kg intraperitoneally, vs non-administration group) was “significantly suppresses”. In series [2] (50 mg/kg intraperitoneally), the “time after administration of highest blood concentration of acetazolamide” value came out at 15 min. Further, in series [2] (setting [7]), the “blood bicarbonate ion as compared with the control group” value was “significantly low” and the “blood pH as compared with the control group” value is listed as “significantly low”. For the same compound, in series [2] (30 minutes after the administration of 50 mg/kg), the “blood pH” value worked out at 7.08±0.03.

`O=C=O` [carbon dioxide]: the “effect of carbon dioxide gas in the air” value in series [3] (concentration of 1 to 2% (v/v)) is given as “causes discomfort”; in series [3] (concentration of 3 to 4% (v/v)), “stimulates the respiratory center”; in series [3] (concentration of 6 to 7% (v/v)), “makes breathing difficult”; in series [3] (concentration of 7 to 10% (v/v)), “causes unconsciousness in a few minutes”. In addition, the “epileptiform discharges, duration of a spike” value is “suppressed significantly” in series [4]; “suppressed significantly” in series [1] (10% (v/v) carbon dioxide, five minutes from 25 seconds after starting vs five minutes before administration); “suppressed significantly” in series [1] (carbon dioxide 7% (v/v) or 10% (v/v), control rats in the air). Also, the “seizure duration (second)” value in series [4] is on record as “suppressed significantly”. Also, the “blood concentration of carbon dioxide” value in series [5] (setting [8]) and in series [5] (setting [9]) was “increased” in each case. Also, the “blood pH” value is on record as “reduced” in series [5] (setting [8]), “reduced” in series [5] (setting [9]), 7.27 in series [5] (environment of 10% (v/v) carbon dioxide) and “reduced” in series [6]. In addition, the “alkalosis in the brain” value with 8-11 days-old rats is “can be suppressed”. Besides, the “time the effect of suppressing a seizure lasts after the administration” value in series [1] (10% (v/v) carbon dioxide) was not below 30 min. The “average spike index (spike index for 15 minutes before administration assumed to be 1)” value in series [1] (10% (v/v) carbon dioxide, 0-15 minutes) worked out at 0.0074; in series [1] (10% (v/v) carbon dioxide, 16-30 minutes), 0.054; in series [1] (10% (v/v) carbon dioxide, 31-45 minutes), 0.275; in series [1] (10% (v/v) carbon dioxide, 46-60 minutes), 0.416. Further, in series [1] (10% (v/v) carbon dioxide, 15 minutes after the administration), the “effect of suppressing a seizure” value is on record as “suppress a seizure almost completely”.

`O=O` [oxygen, reference compound]: in series [5] (setting [10]), the “blood concentration of carbon dioxide” value was “reduced” and the “blood pH” value was “increased”.
